According to patent US8034548B2, “Methods and materials for assessing prostate cancer therapies” (The Regents of the University of California, priority 2003, dated 2011):

How the values were obtained:
[1] = tested on: LNCaP cells infected with the empty vector; assay: in vitro growth in low androgen concentrations, vector control cells; format: cell-based, human; conditions: failed to grow unless supplemented
Description: (§1) To determine if increased AR protein concentration plays a causal role in the HS-to-HR transition, we introduced an epitope-tagged wildtype AR cDNA by retrovirus infection into HS LNCaP human prostate cancer cells. A three-fold increase in AR levels in LNCaP-AR cells mimics the expression difference observed in the LNCaP HS/HR pair studied in the microarray experiment. To test whether increased AR expression causes the HS-to-HR transition, we designed two in vitro assays to mimic the clinical circumstances of HR disease. […] In contrast, LNCaP-AR cells grew in at least 80% lower concentrations of R1881.
(§2) Details of typical in vitro and in vivo growth experiments are as follows: LNCaP (ATCC) and LAPC4 cells were maintained in Iscove's medium supplemented with 10% fetal bovine serum. […] In vivo tumorigenicity was measured by injection of 5×10^5 LAPC4 or 1×10^6 LNCaP cells in 100 μl of Matrigel (Collaborative Biomedical) subcutaneously into the flanks of intact or castrated male SCID mice. Tumor size was measured weekly in three dimensions using caliber as described.^26 AR knockdown was performed by infection of HR LAPC4 with shRNA AR lentivirus. Tumors which grew in castrated mice were explanted, and analyzed by flow cytometry for the percentage of GFP-positive cells. […]

[2] = tested on: LNCaP-AR cells; assay: in vitro growth in low androgen concentrations, AR-overexpressing cells; format: cell-based, human; conditions: compared with 100 pM needed by vector cells
Description: as §1, §2

[3] = target: AR transcription complex on the promoters of PSA and KLK2 (Homo sapiens, UniProt P10275, T878A)
Chain of AR transcription complex on the promoters of PSA and KLK2 (P10275 whole entry T878A, the tested form may be a part, one chain of several): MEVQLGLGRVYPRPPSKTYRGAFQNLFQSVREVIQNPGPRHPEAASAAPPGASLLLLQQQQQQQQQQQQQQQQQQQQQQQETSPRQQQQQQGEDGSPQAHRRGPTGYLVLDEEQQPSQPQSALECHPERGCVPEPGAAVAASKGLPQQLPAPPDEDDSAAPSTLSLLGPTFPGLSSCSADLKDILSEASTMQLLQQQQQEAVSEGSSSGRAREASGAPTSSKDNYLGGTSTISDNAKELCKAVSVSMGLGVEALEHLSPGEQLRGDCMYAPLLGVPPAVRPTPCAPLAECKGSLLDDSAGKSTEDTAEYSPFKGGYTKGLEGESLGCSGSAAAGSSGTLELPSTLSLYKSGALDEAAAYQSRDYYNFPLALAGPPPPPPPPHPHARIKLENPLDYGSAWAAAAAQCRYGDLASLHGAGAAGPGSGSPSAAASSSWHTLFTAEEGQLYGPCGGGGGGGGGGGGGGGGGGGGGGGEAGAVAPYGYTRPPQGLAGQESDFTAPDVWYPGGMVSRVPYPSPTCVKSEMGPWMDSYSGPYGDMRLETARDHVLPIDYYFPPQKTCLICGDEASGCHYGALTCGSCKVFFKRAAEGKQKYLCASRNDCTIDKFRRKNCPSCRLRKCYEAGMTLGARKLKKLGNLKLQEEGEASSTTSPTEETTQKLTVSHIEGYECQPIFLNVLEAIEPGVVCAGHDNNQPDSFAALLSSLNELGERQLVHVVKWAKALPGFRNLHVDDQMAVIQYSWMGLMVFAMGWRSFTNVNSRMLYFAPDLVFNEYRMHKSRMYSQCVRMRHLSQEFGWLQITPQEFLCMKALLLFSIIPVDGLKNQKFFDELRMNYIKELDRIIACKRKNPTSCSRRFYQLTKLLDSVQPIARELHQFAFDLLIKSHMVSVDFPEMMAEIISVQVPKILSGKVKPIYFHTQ
Description: Soluble chromatin was prepared after formaldehyde crosslinking and sonication. Specific IgGs against AR, N—CoR, PolII, Ac—H3/4, SRC1, TIF2, AIB1, and PCAF were used to immunoprecipitate protein-bound DNA fragments.

[4] = tested on: LNCaP-AR cells; assay: Affymetrix U133A microarray of induced genes, AR-overexpressing cells; format: cell-based, human

Structure (SMILES)	R1881 supplement needed for growth in steroid-depleted, charcoal-stripped serum [1] [pM]	lower concentration of R1881 in which cells grew [2]	recruitment of AR and polymerase II to PSA and KLK2 promoters [3]	total number of androgen-regulated genes ([4]; increasing doses of R1881) [probe sets]	subset of the total number of androgen-regulated genes induced ([4]; LNCaP-AR, 10 μM bicalutamide) [%]
C[C@]1(O)CC[C@H]2[C@@H]3CCC4=CC(=O)CCC4=C3C=C[C@@]21C [R1881]	100	at least 80%	AR and polymerase II were recruited to both promoters regardless of AR level	> 600	
CC(O)(CS(=O)(=O)c1ccc(F)cc1)C(=O)Nc1ccc(C#N)c(C(F)(F)F)c1 (centres unmarked) [bicalutamide]					< 10
